From PMC8213057, “Targeting ALK2: An Open Science Approach to Developing Therapeutics for the Treatment of Diffuse Intrinsic Pontine Glioma” (Journal of Medicinal Chemistry, 2020)
“And” between values parts separate entries of the source, which are not always exact repeats. Equal entries are not always repeated.

Columns and labels:
PKA = PKA (Homo sapiens, UniProt P17612); conditions: 1 μM; Run 1, Run 2
GRK3 = biological target: T1, GRK3 (Homo sapiens, UniProt P35626); conditions: 1 μM; Run 1, Run 2
T1 sequence (P35626 1-688): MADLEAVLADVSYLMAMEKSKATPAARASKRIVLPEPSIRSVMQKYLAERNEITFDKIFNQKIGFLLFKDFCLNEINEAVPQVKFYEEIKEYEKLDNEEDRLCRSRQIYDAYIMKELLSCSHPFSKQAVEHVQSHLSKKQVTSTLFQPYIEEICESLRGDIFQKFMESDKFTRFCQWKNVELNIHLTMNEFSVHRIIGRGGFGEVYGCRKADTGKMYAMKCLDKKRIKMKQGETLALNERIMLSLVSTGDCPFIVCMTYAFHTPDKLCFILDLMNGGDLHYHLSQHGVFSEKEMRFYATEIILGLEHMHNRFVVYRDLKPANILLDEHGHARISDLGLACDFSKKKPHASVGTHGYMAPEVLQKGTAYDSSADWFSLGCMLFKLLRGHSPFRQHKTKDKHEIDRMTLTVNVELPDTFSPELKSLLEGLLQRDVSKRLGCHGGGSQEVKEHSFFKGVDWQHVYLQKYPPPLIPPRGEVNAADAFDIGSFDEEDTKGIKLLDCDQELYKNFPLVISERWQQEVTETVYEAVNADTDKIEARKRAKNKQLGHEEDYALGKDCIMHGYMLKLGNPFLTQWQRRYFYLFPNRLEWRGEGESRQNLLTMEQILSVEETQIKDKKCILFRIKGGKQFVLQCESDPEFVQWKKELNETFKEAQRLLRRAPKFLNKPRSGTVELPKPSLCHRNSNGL

CK1g2 = CK1g2 (Homo sapiens, UniProt P78368); assay: biochemical; conditions: read-out: % enzyme activity, 1 μM; Run 1, Run 2
Sequence of CK1g2 (P78368 whole entry): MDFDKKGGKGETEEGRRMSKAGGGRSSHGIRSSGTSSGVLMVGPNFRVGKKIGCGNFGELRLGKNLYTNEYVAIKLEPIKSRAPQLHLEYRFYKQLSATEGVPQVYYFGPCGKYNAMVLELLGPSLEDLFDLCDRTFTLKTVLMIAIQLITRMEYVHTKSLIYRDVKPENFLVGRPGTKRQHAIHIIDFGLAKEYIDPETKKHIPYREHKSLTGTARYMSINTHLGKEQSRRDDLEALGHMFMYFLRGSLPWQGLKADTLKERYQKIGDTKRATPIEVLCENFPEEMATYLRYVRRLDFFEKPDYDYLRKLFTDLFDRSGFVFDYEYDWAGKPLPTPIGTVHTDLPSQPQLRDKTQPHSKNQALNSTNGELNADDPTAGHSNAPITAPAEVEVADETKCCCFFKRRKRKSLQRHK

ERBB2/HER2 = ERBB2/HER2 (Homo sapiens, UniProt P04626); conditions: 1 μM; Run 1, Run 2
Sequence of ERBB2/HER2 (P04626 23-1255): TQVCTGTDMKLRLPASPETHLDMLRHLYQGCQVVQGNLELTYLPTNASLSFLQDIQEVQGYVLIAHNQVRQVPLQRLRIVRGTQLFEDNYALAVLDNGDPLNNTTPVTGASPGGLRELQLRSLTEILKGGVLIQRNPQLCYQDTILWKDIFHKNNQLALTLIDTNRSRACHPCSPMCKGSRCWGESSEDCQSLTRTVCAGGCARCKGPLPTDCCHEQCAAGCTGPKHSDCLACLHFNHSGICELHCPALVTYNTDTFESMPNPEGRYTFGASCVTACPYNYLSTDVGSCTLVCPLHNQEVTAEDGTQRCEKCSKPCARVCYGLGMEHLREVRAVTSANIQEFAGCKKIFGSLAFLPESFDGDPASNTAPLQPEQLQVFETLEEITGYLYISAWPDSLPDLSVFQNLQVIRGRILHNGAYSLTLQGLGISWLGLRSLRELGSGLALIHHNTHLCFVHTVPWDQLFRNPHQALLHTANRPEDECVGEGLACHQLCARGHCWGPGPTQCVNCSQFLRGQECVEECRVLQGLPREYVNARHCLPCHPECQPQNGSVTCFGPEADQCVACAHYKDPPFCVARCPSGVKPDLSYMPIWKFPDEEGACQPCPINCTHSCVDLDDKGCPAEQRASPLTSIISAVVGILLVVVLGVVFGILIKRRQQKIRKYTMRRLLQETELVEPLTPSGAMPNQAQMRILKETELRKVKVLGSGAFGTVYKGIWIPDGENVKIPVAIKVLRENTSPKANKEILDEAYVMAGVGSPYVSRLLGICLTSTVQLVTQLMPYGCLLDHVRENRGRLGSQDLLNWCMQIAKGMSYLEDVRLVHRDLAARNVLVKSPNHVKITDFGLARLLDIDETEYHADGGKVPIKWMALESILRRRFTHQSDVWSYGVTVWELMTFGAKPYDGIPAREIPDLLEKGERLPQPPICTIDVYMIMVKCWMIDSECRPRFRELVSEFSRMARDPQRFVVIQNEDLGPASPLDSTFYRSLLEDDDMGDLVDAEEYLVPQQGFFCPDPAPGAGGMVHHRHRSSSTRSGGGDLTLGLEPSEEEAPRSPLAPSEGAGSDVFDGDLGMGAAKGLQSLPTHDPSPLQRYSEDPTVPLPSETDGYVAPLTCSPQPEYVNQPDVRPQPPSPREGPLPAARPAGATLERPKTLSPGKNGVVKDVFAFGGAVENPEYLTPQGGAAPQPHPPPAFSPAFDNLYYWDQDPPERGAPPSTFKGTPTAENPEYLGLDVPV

LATS2 = biological target: T2, LATS2 (Homo sapiens, UniProt Q9NRM7); assay: biochemical; conditions: read-out: % enzyme activity, 1 μM; Run 1, Run 2
T2 sequence (Q9NRM7 1-1088): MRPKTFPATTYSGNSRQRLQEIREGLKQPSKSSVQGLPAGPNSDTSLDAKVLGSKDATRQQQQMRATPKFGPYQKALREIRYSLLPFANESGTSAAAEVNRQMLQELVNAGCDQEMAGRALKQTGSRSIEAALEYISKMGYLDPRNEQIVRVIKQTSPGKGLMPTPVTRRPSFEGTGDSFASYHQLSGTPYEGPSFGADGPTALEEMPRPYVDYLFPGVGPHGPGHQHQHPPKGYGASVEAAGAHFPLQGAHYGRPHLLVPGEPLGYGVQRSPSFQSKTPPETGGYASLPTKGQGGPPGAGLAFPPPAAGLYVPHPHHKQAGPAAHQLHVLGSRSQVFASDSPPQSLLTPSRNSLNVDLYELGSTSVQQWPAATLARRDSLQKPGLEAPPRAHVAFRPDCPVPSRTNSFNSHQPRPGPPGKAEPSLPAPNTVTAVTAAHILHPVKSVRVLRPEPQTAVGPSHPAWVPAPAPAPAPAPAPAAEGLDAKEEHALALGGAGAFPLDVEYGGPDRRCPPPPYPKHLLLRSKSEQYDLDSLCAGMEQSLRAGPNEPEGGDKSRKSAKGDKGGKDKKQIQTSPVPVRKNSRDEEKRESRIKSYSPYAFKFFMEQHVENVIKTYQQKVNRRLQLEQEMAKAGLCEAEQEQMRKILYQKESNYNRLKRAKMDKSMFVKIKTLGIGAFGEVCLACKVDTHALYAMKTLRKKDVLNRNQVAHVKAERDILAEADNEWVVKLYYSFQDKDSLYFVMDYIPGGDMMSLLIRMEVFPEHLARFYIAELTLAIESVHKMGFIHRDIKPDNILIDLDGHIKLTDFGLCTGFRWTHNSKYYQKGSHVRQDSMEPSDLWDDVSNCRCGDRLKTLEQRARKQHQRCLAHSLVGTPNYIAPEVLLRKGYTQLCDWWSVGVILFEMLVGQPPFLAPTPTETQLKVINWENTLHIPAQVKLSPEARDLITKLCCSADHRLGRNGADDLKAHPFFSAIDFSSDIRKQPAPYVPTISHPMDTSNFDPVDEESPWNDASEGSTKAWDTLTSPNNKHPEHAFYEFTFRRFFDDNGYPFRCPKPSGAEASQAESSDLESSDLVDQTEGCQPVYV

SNARK/NUAK2 = biological target: T3, SNARK/NUAK2 (Homo sapiens, UniProt Q9H093); assay: biochemical; conditions: read-out: % enzyme activity, 1 μM; Run 1, Run 2
T3 sequence (Q9H093 1-628): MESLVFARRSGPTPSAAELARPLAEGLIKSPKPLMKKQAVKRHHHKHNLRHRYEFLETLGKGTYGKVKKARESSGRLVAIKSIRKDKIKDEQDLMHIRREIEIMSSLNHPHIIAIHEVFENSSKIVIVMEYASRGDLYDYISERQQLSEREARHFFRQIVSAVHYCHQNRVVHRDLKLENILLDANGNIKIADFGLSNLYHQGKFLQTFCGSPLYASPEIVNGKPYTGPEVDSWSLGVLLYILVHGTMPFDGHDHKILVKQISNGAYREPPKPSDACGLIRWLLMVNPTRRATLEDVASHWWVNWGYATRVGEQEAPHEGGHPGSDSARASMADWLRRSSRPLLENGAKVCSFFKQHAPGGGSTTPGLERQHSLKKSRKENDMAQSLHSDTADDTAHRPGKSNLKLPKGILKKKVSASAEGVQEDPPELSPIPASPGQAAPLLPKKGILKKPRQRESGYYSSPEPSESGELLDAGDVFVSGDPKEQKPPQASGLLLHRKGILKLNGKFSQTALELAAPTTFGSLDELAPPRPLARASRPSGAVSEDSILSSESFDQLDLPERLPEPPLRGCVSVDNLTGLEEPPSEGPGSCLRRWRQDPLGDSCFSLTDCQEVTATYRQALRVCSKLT

Row | SMILES | % enzyme activity (PKA) [%] | % enzyme activity (GRK3) [%] | remaining activity at 1 µM (CK1g2) [%] | % enzyme activity (ERBB2/HER2) [%] | remaining activity at 1 µM (LATS2) [%] | % enzyme activity at 1 μM (DYRK1/DYRK1A) | remaining activity at 1 µM (SNARK/NUAK2) [%]
1 | COc1cc(-c2cncc(-c3ccc(N4CCN(C)CC4)cc3)c2C)cc(F)c1C(N)=O [Compound 26a, 2-Fluoro-6-methoxy-4-(4-methyl-5-(4-(4-methylpiperazin-1-yl)phenyl)pyridin-3-yl)benzamide] | 96.94 | 94.07 | 78 | 89.07 | 106 | 43.3% and 43.1% | 91.6
2 | COc1cc(-c2cncc(-c3ccc(N4C[C@@H](C)N(C)[C@@H](C)C4)cc3)c2C)cc(F)c1C(N)=O [Compound 26c, 2-Fluoro-6-methoxy-4-(4-methyl-5-(4-((3R,5S)-3,4,5-trimethylpiperazin-1-yl)phenyl)pyridin-3-yl)benzamide] | 95.62 | 95.20 | 87 | 95.40 | 102 | 62.4% and 60% | 94
